The record followed here is US10160762B2, “6-alkyl dihydropyrazolopyrimidinone compounds as PDE2 inhibitors” (Merck Sharp & Dohme Corp., priority 2015, dated 2018).

This assay concerns the target T1, human PDE2A1 (Homo sapiens, UniProt O00408).
T1 construct: GST; purchased BPS Bioscience (San Diego, Calif.) 60020; host or cells: insect cells
Put plainly: IMAP FP PDE assay, human PDE2A1. The assay is classed as biochemical. The settings on record: Lab B; read-out: Human PDE2 Ki (nM) Lab B. In outline: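 GST-tagged human PDE2A1 from insect cells; substrate 50 nM FAM-cAMP containing 1000 nM cGMP in Tris pH 7.2/MgCl2/DTT buffer, enzyme giving 20% conversion. 60 min at room temperature, IMAP binding reagent, fluorescence polarization read. Apparent Ki from FP readings using apparent KM 10,000 nM; ten-point 3-fold titrations.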

T1 sequence (O00408 1-920 isoform O00408-2): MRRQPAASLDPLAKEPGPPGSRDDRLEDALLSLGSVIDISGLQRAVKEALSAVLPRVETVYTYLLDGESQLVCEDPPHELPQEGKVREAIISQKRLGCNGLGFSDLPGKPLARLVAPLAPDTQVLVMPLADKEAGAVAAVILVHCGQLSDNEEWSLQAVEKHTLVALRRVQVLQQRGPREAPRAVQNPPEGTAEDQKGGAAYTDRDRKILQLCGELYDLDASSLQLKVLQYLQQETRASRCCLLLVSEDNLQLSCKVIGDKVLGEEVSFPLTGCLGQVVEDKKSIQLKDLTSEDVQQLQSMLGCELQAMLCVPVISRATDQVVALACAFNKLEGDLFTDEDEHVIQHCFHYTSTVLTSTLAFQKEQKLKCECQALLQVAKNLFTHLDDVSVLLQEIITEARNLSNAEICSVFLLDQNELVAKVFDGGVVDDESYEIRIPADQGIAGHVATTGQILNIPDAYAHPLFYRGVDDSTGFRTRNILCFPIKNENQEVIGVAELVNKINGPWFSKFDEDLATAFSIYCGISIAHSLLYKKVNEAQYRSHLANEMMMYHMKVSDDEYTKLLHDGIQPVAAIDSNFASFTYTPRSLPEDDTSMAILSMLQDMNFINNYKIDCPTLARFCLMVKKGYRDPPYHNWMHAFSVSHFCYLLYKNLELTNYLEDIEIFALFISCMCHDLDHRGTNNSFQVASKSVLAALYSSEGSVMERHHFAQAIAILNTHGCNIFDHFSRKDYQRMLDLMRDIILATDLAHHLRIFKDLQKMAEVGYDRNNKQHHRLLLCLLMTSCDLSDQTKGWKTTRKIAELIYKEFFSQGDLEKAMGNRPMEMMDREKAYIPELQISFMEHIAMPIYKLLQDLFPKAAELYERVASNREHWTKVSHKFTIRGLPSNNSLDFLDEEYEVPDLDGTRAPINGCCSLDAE

As for `CC(c1ccc(C(F)(F)F)cc1)n1nc(CO)c2c(=O)[nH]c(C3CCCO3)nc21` (single isomer, unassigned) [Example 312, (S,S)- or (R,S)- or (S,R)- or (R,R)-3-(Hydroxymethyl)-6-(tetrahydrofuran-2-yl)-1-(1-(4-(trifluoromethyl-)phenyl)ethyl)-1,5-dihydro-4H-pyrazolo[3,4-d]pyrimidin-4-one], the inhibition constant Ki is ~1860 nM.

For `Cc1nc2c(c(C(F)F)nn2C(c2ccc(C(F)(F)F)cc2)C(C)C)c(=O)[nH]1` (single isomer, unassigned) [Example 171, (R)- or (S)-3-(Difluoromethyl)-6-methyl-1-(2-methyl-1-(4-(trifluoromethyl)phenyl)propyl)-1H-pyrazolo[3,4-d] pyrimidin-4(5H)-one], the Ki came out at 43 nM.

As to `CC(c1ccc(C(F)(F)F)cc1)n1nc(CO)c2c(=O)[nH]c(C3CC3)nc21` (single isomer, unassigned) [Example 299, (R)- or (S)-6-Cyclopropyl-3-(hydroxymethyl)-1-{1-[4-(trifluoromethyl)phenyl]ethyl}-1,5-dihydro-4H-pyrazolo[3,4-d]pyrimidin-4-one], the Ki came out at 157 nM.

On to `Cc1nc2c(c(CO)nn2C(C)c2ccc(C(F)(F)F)nn2)c(=O)[nH]1` (single isomer, unassigned) [Example 146, (S)- or (R)-3-(Hydroxymethyl)-6-methyl-1-(1-(6-(trifluoromethyl)pyridazin-3-yl)ethyl)-1H-pyrazolo[3,4-d]pyrimidin-4(5H)-one], for which the Ki worked out at 58 nM.

Take `Cc1nc2c(c(CO)nn2C(CC(F)(F)F)c2ccc(C(F)(F)F)cc2)c(=O)[nH]1` (single isomer, unassigned) [Example 97, (S)- or (R)-3-(Hydroxymethyl)-6-methyl-1-(3,3,3-trifluoro-1-(4-(trifluoromethyl)phenyl)propyl)-1H-pyrazolo[3,4-d]pyrimidin-4(5H)-one]: the inhibitory constant (Ki) is 467 nM.

As to `Cc1nc2c(c(C(=O)N(C)C)nn2C(C)c2ccc(C(F)(F)F)cc2)c(=O)[nH]1` (single isomer, unassigned) [Example 266, (R)- or (S)-N,N,6-Trimethyl-4-oxo-1-(1-(4-(trifluoromethyl)phenyl)ethyl)-4,5-dihydro-1H-pyrazolo[3,4-d]pyrimidine-3-carboxamide], the Ki stood at 654 nM.

`Cc1nc2c(c(CO)nn2C(C)c2ccc(C(F)(F)F)c(I)c2)c(=O)[nH]1` (single isomer, unassigned) [Example 139, (S)- or (R)-3-(Hydroxymethyl)-1-(1-(3-iodo-4-(trifluoromethyl-)phenyl)ethyl)-6-methyl-1,5-dihydro-4H-pyrazolo[3,4-d]pyrimidin-4-one]: the Ki was determined as 5.6 nM.

As to `COc1cccc(Cc2nc3c(c(-c4nnco4)nn3C(C)c3ccc(C(F)(F)F)cc3)c(=O)[nH]2)c1` (single isomer, unassigned) [Example 344, (R)- or (S)-6-(3-Methoxybenzyl)-3-(1,3,4-oxadiazol-2-yl)-1-(1-(4-(trifluoromethyl)phenyl)ethyl)-1,5-dihydro-4H-pyrazolo[3,4-d] pyrimidin-4-one], the Ki is 26 nM.

In the case of `Cc1nc2c(c(CC(F)(F)F)nn2C(C)c2ccc(OC(F)(F)F)cc2)c(=O)[nH]1` (single isomer, unassigned) [Example 66, (R)- or (S)-6-Methyl-3-(2,2,2-trifluoroethyl)-1-(1-(4-(trifluoromethoxy)phenyl)ethyl)-1H-pyrazolo[3,4-d]pyrimidin-4(5H)-one], the Ki came to 327 nM.

In the case of `Cc1nc2c(c(CO)nn2C(c2ccc(C(F)(F)F)c(F)c2)C2(C)CC2)c(=O)[nH]1` (single isomer, unassigned) [Example 14, (R)- or (S)-1-((3-Fluoro-4-(trifluoromethyl)phenyl)(1-methylcyclopropyl)methyl)-3-(hydroxymethyl)-6-methyl-1H-pyrazolo[3,4-d]pyrimidin-4(5H)-one], the inhibition constant (Ki) came to 2.4 nM.

Take `Cc1nc2c(c(CO)nn2C(C)c2ccc(C(F)(F)C(F)(F)F)cc2)c(=O)[nH]1` (single isomer, unassigned) [Example 99, (S)- or (R)-3-(Hydroxymethyl)-6-methyl-1-(1-(4-(perfluoroethyl)phenyl)ethyl)-1H-pyrazolo[3,4-d]pyrimidin-4(5H)-one]: the Ki amounted to 4.5 nM.

With `CC(=O)c1ccc(C(C)n2nc(CO)c3c(=O)[nH]c(C)nc32)cc1` (single isomer, unassigned) [Example 291], the Ki came out at 104 nM.

For `Cc1nc2c(c(CO)nn2C(C)c2ccc(Cl)s2)c(=O)[nH]1` (single isomer, unassigned) [Example 154, (S)- or (R)-1-(1-(5-Chlorothiophen-2-yl)ethyl)-3-(hydroxymethyl)-6-methyl-1H-pyrazolo[3,4-d]pyrimidin-4(5H)-one], the inhibitory constant (Ki) is 18 nM.

On to `Cc1nc2c(c(CO)nn2C(C)c2ccc(C(F)(F)F)nc2)c(=O)[nH]1` (single isomer, unassigned) [Example 131, (S)- or (R)-3-(Hydroxymethyl)-6-methyl-1-(1-(6-(trifluoro-methyl)pyridin-3-yl)ethyl)-1H-pyrazolo[3,4-d]pyrimidin-4(5H)-one], for which the Ki came out at 57 nM.

`Cc1nc2c(c(C(F)F)nn2C(C)c2ccc(SC(F)(F)F)cc2)c(=O)[nH]1` (single isomer, unassigned) [Example 179, (R)- or (S)-3-(Difluoromethyl)-6-methyl-1-(1-(4-(trifluoromethylthio)phenyl)ethyl)-1H-pyrazolo[3,4-d] pyrimidin-4(5H)-one]: the Ki turned out to be 28 nM.

For `Cc1nc2c(c(CC(C)(C)O)nn2C(C)c2ccc(C(F)(F)F)cc2)c(=O)[nH]1` (stereo not shown) [Example 247, 3-(2-Hydroxy-2-methylpropyl)-6-methyl-1-(1-(4-(trifluoromethyl)phenyl)ethyl)-1H-pyrazolo[3,4-d]pyrimidin-4(5H)-one], the Ki is ~567 nM.

Turning to `Cc1nc2c(c(C(F)F)nn2C(C)c2ccc(C(F)(F)F)nc2)c(=O)[nH]1` (single isomer, unassigned) [Example 194], the Ki turned out to be 14 nM.

Take `COCC(c1ccc(C(F)(F)F)cc1)n1nc(CO)c2c(=O)[nH]c(C)nc21` (single isomer, unassigned) [Example 101, (S)- or (R)-3-(Hydroxymethyl)-1-(2-methoxy-1-(4-(trifluoromethyl)phenyl)ethyl)-6-methyl-1H-pyrazolo[3,4-d]pyrimidin-4(5H)-one]: the Ki was found to be 13 nM.

As to `Cc1nc2c(c(OCC(F)(F)F)nn2C(C)c2ccc(C(F)(F)F)cc2)c(=O)[nH]1` (single isomer, unassigned) [Example 287], the Ki is 375 nM.

As for `Cc1nc2c(c(C(F)F)nn2C(C)c2ccc(OC(F)(F)F)cc2)c(=O)[nH]1` (single isomer, unassigned) [Example 177, (R)- or (S)-3-(Difluoromethyl)-6-methyl-1-(1-(4-(trifluoromethoxy)phenyl)ethyl)-1H-pyrazolo[3,4-d]pyrimidin-4(5H)-one], the Ki is 61 nM.

As to `CC(c1ccc(C(F)(F)F)cc1)n1nc(CO)c2c(=O)[nH]c(CC3CC3)nc21` (single isomer, unassigned) [Example 309, (R)- or (S)-6-(Cyclopropyl-methyl)-3-(hydroxymethyl)-1-(1-(4-(trifluoromethyl)phenyl)ethyl)-1,5-dihydro-4H-pyrazolo[3,4-d]pyrimidin-4-one], the Ki was 420 nM.

Regarding `COCc1nc2c(c(CO)nn2C(C)c2ccc(S(F)(F)(F)(F)F)cc2)c(=O)[nH]1` (single isomer, unassigned) [Example 317, (R)- or (S)-3-(Hydroxy-methyl)-6-(methoxy-methyl)-1-{1-[4-(pentafluoro-sulfanyl)-phenyl]ethyl}-1,5-dihydro-4H-pyrazolo[3,4-d]pyrimidin-4-one], the Ki came out at 150 nM.

On to `Cc1nc2c(c(CO)nn2C(C)c2ccc3c(c2)OC(F)(F)O3)c(=O)[nH]1` (single isomer, unassigned) [Example 114, (R)- or (S)-1-(1-(2,2-Difluorobenzo[d][1,3]dioxol-5-yl)ethyl)-3-(hydroxymethyl)-6-methyl-1H-pyrazolo[3,4-d]pyrimidin-4(5H)-one], for which the Ki turned out to be 1210 nM.

Consider `Cc1nc2c(c(CO)nn2C(C)c2ccc(C(C)(F)F)cc2)c(=O)[nH]1` (single isomer, unassigned) [Example 116, (R)- or (S)-1-(1-(4-(1,1-Difluoroethyl)phenyl)ethyl)-3-(hydroxymethyl)-6-methyl-1H-pyrazolo[3,4-d]pyrimidin-4(5H)-one], for which the Ki was determined as 392 nM.

Consider `Cc1nc2c(c(C(F)F)nn2C2(c3ccc(C(F)(F)F)cc3)COC2)c(=O)[nH]1` [Example 163, 3-(Difluoromethyl)-6-methyl-1-(3-(4-(trifluoromethyl)phenyl)oxetan-3-yl)-1H-pyrazolo[3,4-d]pyrimidin-4(5H)-one], for which the Ki turned out to be 9.5 nM.

As for `Cc1nc2c(c(CO)nn2C(C)c2cnn(CC(F)(F)F)c2)c(=O)[nH]1` (single isomer, unassigned) [Example 150, (S)- or (R)-3-(Hydroxymethyl)-6-methyl-1-(1-(1-(2,2,2-trifluoroethyl)-1H-pyrazol-4-yl)ethyl)-1H-pyrazolo[3,4-d]pyrimidin-4(5H)-one], the Ki came out at 158 nM.

Turning to `Cc1nc2c(c(CO)nn2C(C)c2ccc(OC(F)F)cc2F)c(=O)[nH]1` (single isomer, unassigned) [Example 119, (S)- or (R)-1-(1-(4-(Difluoromethoxy)-2-fluorophenypethyl)-3-(hydroxymethyl)-6-methyl-1H-pyrazolo[3,4-d]pyrimidin-4(5H)-one], the Ki was found to be 2.7 nM.

In the case of `COCc1nc2c(c(CO)nn2C(C)c2ccc(S(F)(F)(F)(F)F)cc2)c(=O)[nH]1` (single isomer, unassigned) [Example 318, (S)- or (R)-3-(Hydroxymethyl)-6-(methoxymethyl)-1-{1-[4-(pentafluorosulfanyl)phenyl]ethyl}-1,5-dihydro-4H-pyrazolo[3,4-d]pyrimidin-4-one], the Ki stood at 3.8 nM.

The term Ki denotes the dissociation constant of the complex between target and ligand, obtained from inhibition or displacement.
